Laboratory results taken from PubChem BioAssay (NCI).
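Where inhibition never reached the appropriate level, the endpoint shown equals the highest concentration tested. Otherwise, values were interpolated linearly from a five-concentration, 48-hour dose response in 96-well plates. TGI: concentration producing complete growth inhibition.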

Assays:
Experiment in all cases: NCI tumour cell line growth inhibition, 48 h
SK-MEL-5 melanoma = system: SK-MEL-5 melanoma
UACC-62 melanoma = system: UACC-62 melanoma
M14 melanoma = system: M14 melanoma
NCI-H23 lung = system: NCI-H23 lung
LOX IMVI melanoma = system: LOX IMVI melanoma
RPMI-8226 leukemia = system: RPMI-8226 leukemia
KM20L2 colon = system: KM20L2 colon
HCT-116 colon = system: HCT-116 colon
KM12 colon = system: KM12 colon
CCRF-CEM leukemia = system: CCRF-CEM leukemia
MOLT-4 leukemia = system: MOLT-4 leukemia
OVCAR-3 ovarian = system: OVCAR-3 ovarian
TK-10 renal = system: TK-10 renal
RXF 393 renal = system: RXF 393 renal
EKVX NSCLC = system: EKVX NSCLC
HCT-15 colon = system: HCT-15 colon
U251 CNS = system: U251 CNS
DLD-1 colon = system: DLD-1 colon
SNB-78 CNS = system: SNB-78 CNS
OVCAR-8 ovarian = system: OVCAR-8 ovarian
K-562 leukemia = system: K-562 leukemia
UO-31 renal = system: UO-31 renal
SF-268 CNS = system: SF-268 CNS
SR leukemia = system: SR leukemia
UACC-257 melanoma = system: UACC-257 melanoma
OVCAR-4 ovarian = system: OVCAR-4 ovarian
HOP-92 NSCLC = system: HOP-92 NSCLC
SW-620 colon = system: SW-620 colon
SK-OV-3 ovarian = system: SK-OV-3 ovarian
IGROV1 ovarian = system: IGROV1 ovarian
SK-MEL-28 melanoma = system: SK-MEL-28 melanoma
HOP-62 NSCLC = system: HOP-62 NSCLC
786-0 renal = system: 786-0 renal
DMS 114 small cell lung = system: DMS 114 small cell lung
M19-MEL melanoma = system: M19-MEL melanoma
MALME-3M melanoma = system: MALME-3M melanoma
SNB-75 CNS = system: SNB-75 CNS
SK-MEL-2 melanoma = system: SK-MEL-2 melanoma
NCI-H522 lung = system: NCI-H522 lung
A498 renal = system: A498 renal
COLO 205 colon = system: COLO 205 colon
DMS 273 small cell lung = system: DMS 273 small cell lung
HL-60(TB) leukemia = system: HL-60(TB) leukemia
A549 NSCLC = system: A549 NSCLC
OVCAR-5 ovarian = system: OVCAR-5 ovarian
SN12C renal = system: SN12C renal
HCC-2998 colon = system: HCC-2998 colon
SF-295 CNS = system: SF-295 CNS
HT29 colon = system: HT29 colon
ACHN renal = system: ACHN renal
RXF-631 renal = system: RXF-631 renal
SF-539 CNS = system: SF-539 CNS
LXFL 529 NSCLC = system: LXFL 529 NSCLC
CAKI-1 renal = system: CAKI-1 renal
SNB-19 CNS = system: SNB-19 CNS
NCI-H460 lung = system: NCI-H460 lung
NCI-H226 lung = system: NCI-H226 lung
XF 498 CNS = system: XF 498 CNS
HOP-18 NSCLC = system: HOP-18 NSCLC

Measured: TGI

c1coc(CNc2ncnc3[nH]ncc23)c1
not listed: HOP-18 NSCLC
> 100 µM: all other assays above

C/C(N=NS(=O)(=O)c1ccccc1)=C1\C=CC=CN1O
not listed: LOX IMVI melanoma | RXF 393 renal | K-562 leukemia | MALME-3M melanoma | SK-MEL-2 melanoma | COLO 205 colon | NCI-H226 lung
> 100 µM: all other assays above

COc1cc(Br)c(C=Nc2cccc3cc(OC)c(OC)cc23)cc1OC
59 µM: SNB-75 CNS
39.5 µM: HL-60(TB) leukemia
66.9 µM: SF-539 CNS
80.8 µM: OVCAR-3 ovarian
98.1 µM: HOP-92 NSCLC
82 µM: NCI-H226 lung
50.4 µM: DMS 114 small cell lung
98.4 µM: HT29 colon
73.4 µM: SF-295 CNS
50.3 µM: RXF 393 renal
not listed: SK-MEL-2 melanoma | A498 renal | XF 498 CNS
> 100 µM: all other assays above
